Measured values as given in patent US8039465B2, “Cytoskeletal active compounds, composition and use” (priority 2005, dated 2011).

Assays:
non-muscle actin = assay: Actin Polymerization Inhibition Assay (Actin Polymerization Biochem Kit, pyrene actin fluorescence); type: biochemical; conditions: inhibition of actin polymerization (pyrene-labeled actin fluorescence increase) at standard test concentration of 10 uM
Protocol: The quantative effects of the test compounds on the kinetics of actin polymerization were determined using a non-muscle actin polymerization kit, Actin Polymerization Biochem Kit, according to the instructions of the manufacturer (Cytoskeleton Inc; Denver, Colo.). This assay evaluates the fluorescence intensity of pyrene actin, which is greater for polymeric actin than for monomeric actin. The ability of the test compounds to inhibit actin assembly was determined by measuring their ability to inhibit this increase in the fluorescence intensity of the pyrene-labeled actin. Results were expressed as the percent inhibition measured at a standard test concentration of 10 uM.

NIH/3T3 cells = assay: NIH/3T3 Cell Morphology Assay (phalloidin staining, degree of actin disruption); type: cell-based; conditions: 30 minutes at 37° C., 10 nM to 100 uM tested, TRITC-phalloidin imaging
Protocol: NIH/3T3 cells were grown in DMEM-H containing glutamine and 10% Colorado Calf Serum. Cells were passaged regularly prior to reaching confluence. Eighteen to 24 hours prior to experimentation, the cells were plated onto Poly-L-Lysine-coated glass coverslips. On the day of experimentation, the cell culture medium was removed and was replaced with medium containing from 10 nM to 100 uM of the test compound, and the cells were incubated for 30 minutes at 37° C. The culture medium was then removed and the cells were washed with warmed PBS and fixed for 10 minutes with warmed 4% paraformaldehyde. The cells were permeabilized with 0.5% Triton-X, stained with TRITC-conjugated phalloidin and imaged using a Nikon Eclipse E600 epifluorescent microscope to determine the degree of actin disruption. Results were expressed as the concentration at which complete disruption of the actin cytoskeleton was observed.

SMILES | Percent inhibition at 10 uM (non-muscle actin) [%] | Concentration giving complete actin disruption (NIH/3T3 cells) [µM]
C/C1=C/C(=O)N[C@@H]2C[C@@H](CCC/C=C\CC1)O[C@@](O)([C@@H]1CSC(=O)N1)C2 [Compound 8c, (1R,4Z,8Z,13R,15R)-15-Hydroxy-5-methyl-15-((R)-2-oxothiazolidin-4-yl)-14-oxa-2-aza-bicyclo[11.3.1]heptadeca-4,8-dien-3-one] | 44.9 | –
C/C1=C/C(=O)O[C@@H]2C[C@@H](CCC/C=C/CC1)O[C@@](O)([C@@H]1CSC(=O)N1)C2 [Compound 8a, (R)-4-((1R,4Z,8E,13R,15R)-15-Hydroxy-5-methyl-3-oxo-2,14-dioxa-bicyclo[11.3.1]heptadeca-4,8-dien-15-yl)thiazolidin-2-one] | 67.2 | 15
O=C1CCCCCCCCC[C@@H]2C[C@H](C[C@](O)([C@@H]3CSC(=O)N3)O2)O1 [Compound 10b, (R)-4-((1R,13R,15R)-15-Hydroxy-3-oxo-2,14-dioxa-bicyclo[11.3.1]heptadecan-15-yl)thiazolidin-2-one] | 21.8 | –
C/C1=C/C(=O)O[C@@H]2C[C@@H](CCCCCCC1)O[C@@](O)([C@@H]1CSC(=O)N1)C2 [Compound 10, (R)-4-((1R,13R,15R,Z)-15-Hydroxy-5-methyl-3-oxo-2,14-dioxa-bicyclo[11.3.1]heptadec-4-en-15-yl)thiazolidin-2-one] | 44.1 | –
C=CCCC[C@@H]1C[C@@H](OC(=O)c2ccc(S(C)(=O)=O)cc2)C[C@](O)([C@@H]2CSC(=O)N2)O1 [Compound 4b, (2R,4R,6R)-2-Hydroxy-2-((R)-2-oxothiazolidin-4-yl)-6-(pent-4-enyl)-tetrahydro-2H-pyran-4-yl 4-(Methylsulfonyl)benzoate] | 45.6 | –
C=CCCC[C@@H]1C[C@@H](OC(=O)c2ccccc2)C[C@](O)([C@@H]2CSC(=O)N2)O1 [Compound 4, (2R,4R,6R)-2-Hydroxy-2-((R)-2-oxothiazolidin-4-yl)-6-(pent-4-enyl)-tetrahydro-2H-pyran-4-yl Benzoate] | 52.0 | –
C/C1=C/C(=O)O[C@@H]2C[C@@H](CC[C@H](C)/C=C/CC1)O[C@@](O)([C@@H]1CSC(=O)N1)C2 [Compound 8b, (R)-4-((1R,4Z,8E,10S,13R,15R)-15-Hydroxy-5,10-dimethyl-3-oxo-2,14-dioxa-bicyclo[11.3.1]heptadeca-4,8-dien-15-yl)thiazolidin-2-one] | 61.7 | 25
C=CCCC[C@@H]1C[C@@H](OC(=O)c2ccc(OC)cc2)C[C@](O)([C@@H]2CSC(=O)N2)O1 [Compound 4a, (2R,4R,6R)-2-Hydroxy-2-((R)-2-oxothiazolidin-4-yl)-6-(pent-4-enyl)-tetrahydro-2H-pyran-4-yl 4-Methoxybenzoate] | 42.2 | –
C/C1=C/C(=O)O[C@@H]2C[C@@H](CCC/C=C\CC1)O[C@@](O)([C@@H]1CSC(=O)N1)C2 [Compound 8, (R)-4-((1R,4Z,8Z,13R,15R)-15-Hydroxy-5-methyl-3-oxo-2,14-dioxa-bicyclo[11.3.1]heptadeca-4,8-dien-15-yl)thiazolidin-2-one] | 69.9 | 5
C=CCCC[C@@H]1C[C@@H](NC(=O)/C=C(/C)CCC=C)C[C@](O)([C@@H]2CSC(=O)N2)O1 [Compound 1a, (Z)-N-((2R,4R,6R)-2-Hydroxy-2-((R)-2-oxothiazolidin-4-yl)-6-(pent-4-enyl)-tetrahydro-2H-pyran-4-yl)-3-methylhepta-2,6-dienamide] | 32.4 | –
O=C1CCCC/C=C\CCC[C@@H]2C[C@H](C[C@](O)([C@@H]3CSC(=O)N3)O2)O1 [Compound 10a, (R)-4-((1R,13R,15R,Z)-15-Hydroxy-3-oxo-2,14-dioxa-bicyclo[11.3.1]heptadec-8-en-15-yl)thiazolidin-2-one] | 14.0 | –
C=CCCC[C@@H]1C[C@@H](OC(=O)/C=C(/C)CCC=C)C[C@](O)([C@@H]2CSC(=O)N2)O1 [Compound 1, (Z)-((2R,4R,6R)-2-Hydroxy-2-((R)-2-oxothiazolidin-4-yl)-6-(pent-4-enyl)-tetrahydro-2H-pyran-4-yl) 3-Methylhepta-2,6-dienoate] | 52.3 | –
O=C1CCCCC/C=C/CCC[C@@H]2C[C@H](C[C@](O)([C@@H]3CSC(=O)N3)O2)O1 [Compound 10c, (R)-4-((1R,14R,16R,E)-16-Hydroxy-3-oxo-2,15-dioxa-bicyclo[12.3.1]octadec-9-en-16-yl)thiazolidin-2-one] | 21.7 | –
O=C1CCCCCCCCCC[C@@H]2C[C@H](C[C@](O)([C@@H]3CSC(=O)N3)O2)O1 [Compound 10d, (R)-4-((1R,14R,16R)-16-Hydroxy-3-oxo-2,15-dioxa-bicyclo[12.3.1]octadecan-16-yl)thiazolidin-2-one] | 10.4 | –
